Experimental findings from PMC11040648, “Highly tunable bimane-based fluorescent probes: design, synthesis, and application as a selective amyloid binding dye” (Chemical Science, 2024) are described below.

This test concerns the target T1, tau (fibrils) (Homo sapiens, UniProt P10636).
T1 construct: gene MAPT; tau amyloid fibrils
Put plainly: fluorescence turn-on with […] fibrils ([…] lower than αS), emission maximum […] nm. The test is classed as binding.

T1 sequence (P10636 1-441 isoform P10636-8): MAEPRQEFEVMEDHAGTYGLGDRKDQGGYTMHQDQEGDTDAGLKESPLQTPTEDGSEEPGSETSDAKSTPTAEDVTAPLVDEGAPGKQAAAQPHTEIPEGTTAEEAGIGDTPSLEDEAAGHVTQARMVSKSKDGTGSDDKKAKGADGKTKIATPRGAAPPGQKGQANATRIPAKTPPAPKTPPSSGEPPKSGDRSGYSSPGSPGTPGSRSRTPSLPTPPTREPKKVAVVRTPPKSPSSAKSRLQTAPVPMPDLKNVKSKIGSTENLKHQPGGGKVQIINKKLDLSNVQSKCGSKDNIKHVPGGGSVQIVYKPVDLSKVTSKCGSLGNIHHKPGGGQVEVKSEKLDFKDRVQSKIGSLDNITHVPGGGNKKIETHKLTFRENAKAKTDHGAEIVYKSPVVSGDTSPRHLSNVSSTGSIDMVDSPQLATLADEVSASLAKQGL

On to `Cc1c(C)n2c(/C=C/c3ccc(N(C)C)cc3)c(C)c(=O)n2c1=O` [5k], for which the “fluorescence turn-on with 10 μM fibrils (2.8-fold lower than αS), emission maxim” value is “although 5k binds to both αS and tau, it has a greater fluorescence activation”.
